{"source": "patent US4062816A", "about": "“D-Ala^5 -somatostatin and intermediates thereto” (Eli Lilly and Company, priority 1976, dated 1977)", "key": {"growth hormone": {"system": "growth hormone", "test": "inhibition of the release of growth hormone in pentobarbital-stimulated rats", "assay_type": "in vivo, Spraque-Dawley rats", "conditions": "50 μg./rat, subcutaneously; sodium pentobarbital-stimulated; relative to saline control group", "procedure": "The product from Example 4 was tested for its activity in inhibiting the release of growth hormone. The procedure which was employed is carried out using mature male Spraque-Dawley rats (Laboratory Supply Company, Indianapolis, Ind.). The test is a modification of the method of P. Brazeau, W. Vale, and R. Guillemen, Endocrinology, 94 184 (1974). In this assay, three groups of eight rats each were employed. First, sodium pentobarbital was administered to all […] rats to stimulate growth hormone secretion. One of the groups of eight rats is the control group and received only saline. A second of the groups received somatostatin at 50 μg./rat, subcutaneously. The third group received D-Ala^5 -somatostatin at 50 μg./rat, subcutaneously. The degree of inhibition of serum growth hormone concentration then was determined with respect to the control group, and the relative activities of D-Ala^5 -somatostatin and somatostatin itself were compared. At a dose level of 50 μg./rat, D-Ala^5 -somatostatin inhibited the increase in serum growth hormone concentration by 40-50 percent, while somatostatin itself produced a 90 percent inhibition."}, "glucagon": {"system": "glucagon", "test": "inhibition of glucagon secretion in dogs during L-alanine infusion", "assay_type": "in vivo, mongrel dogs", "conditions": "intravenous infusion 0.20-0.30 μg/kg/minute (D-Ala5-somatostatin 0.230 μg/kg/min.); fasted dogs", "procedure": "(§1) The product from Example 4 also was tested for its activity in inhibiting glucagon and insulin secretion. Normal mongrel dogs of either sex were fasted overnight. Control blood samples were obtained, and then an intravenous infusion of saline, somatostatin, or D-Ala^5 -somatostatinwas started. After 30 minutes, L-alanine additionally was administered intravenously for a period of 15 minutes. The infusion of saline, somatostatin, of D-Ala^5 -somatostatin was continued for 15 minutes after completion of the alanine infusion. The total dose of somatostatin or D-Ala^5 -somatostatin which was infused is 200-500 μg/dog (0.20-0.30 μg/kg/ minute), and the total dose of L-alanine infused was 1 mmol.kg./15 minutes."}, "insulin": {"system": "insulin", "test": "inhibition of insulin secretion in dogs during L-alanine infusion", "assay_type": "in vivo, mongrel dogs", "conditions": "intravenous infusion 0.20-0.30 μg/kg/minute (D-Ala5-somatostatin 0.230 μg/kg/min.); fasted dogs", "procedure": "as §1"}}}
{"smiles": "C[C@H](N)C(=O)NCC(=O)N[C@H]1CSSC[C@@H](C(=O)O)NC(=O)[C@H](CO)NC(=O)[C@H]([C@@H](C)O)NC(=O)[C@H](Cc2ccccc2)NC(=O)[C@H]([C@@H](C)O)NC(=O)[C@H](CCCCN)NC(=O)[C@H](Cc2c[nH]c3ccccc23)NC(=O)[C@H](Cc2ccccc2)NC(=O)[C@H](Cc2ccccc2)NC(=O)[C@@H](C)NC(=O)[C@H](CCCCN)NC1=O", "note": "[D-Ala^5 -somatostatin]", "values": [{"measurement": "inhibition of the increase in serum growth hormone concentration", "setting": "growth hormone", "result": "40-50%"}, {"measurement": "effect on the increase in serum glucagon concentration produced by L-alanine", "setting": "glucagon", "result": "did not affect the increase in serum glucagon concentration"}, {"measurement": "effect on basal serum insulin concentration (before alanine infusion)", "setting": "insulin", "result": "caused a brief increase in insulin concentration"}, {"measurement": "effect on the increase in insulin concentration/secretion produced by L-alanine", "setting": "insulin", "result": "did not inhibit the increase in insulin secretion"}]}
